In patent US20040115176A1, “Fibrin-based tissue-engineered vasculature” (priority 2002, published 2004):

Legend:
Type in all cases: cell-based, ovine
fibrin gel constructs [1] = test: Isolated tissue bath, relaxation of norepinephrine constriction; details: for relaxation of norepinephrine constriction: SNAP 10^−5 M, norepinephrine 3×10^−6
fibrin gel constructs [2] = test: Isolated tissue bath, constriction of construct rings
fibrin gel constructs [3] = test: Total weight of fibrin gel vessel constructs; details: 10 and 20 μg/ml aprotinin, two week time point
Protocol: Vessel constructs were left on 4.0 mm silastic tubing in which they were molded, and placed in a 50 ml conical with 30 ml of culture medium. The caps (fixed with 0.22 μm filter) were either attached to the pulsation device or left unattached. The constructs were incubated in a CO2 incubator at 37° C. and 5% CO2. Forty-eight hours after vessel molding, aprotinin (0-200 μg/ml) was added. Some of the vessel constructs were connected to a pneumatic pulsation system, representing a 5-10% radial distention at 60 beats/minute, and one of two pulsation time interval schemes (continuous or 1 hour per 12 hours). Aprotinin (Sigma), a competitive serine protease inhibitor which forms stable complexes with and blocks the active site of enzymes, was added to the fibrin mixture at 0, 10, 20, or 200 μg/ml of vessel medium. Aprotinin was reconstituted using culture medium, filter sterilized through a 0.22 μm syringe filter, and stored at 2.0 mg/ml/vial at 2-8° C. Tissue sections were weighed and some were placed in 10% buffered formalin for paraffin embedding, while others were placed in isolated tissue baths. The weights of the sections were added to obtain total construct weight. […]

fibrin gel constructs [4] = test: Hydroxyproline assay for collagen content of constructs
Protocol: Native tissue and vessel constructs were assayed for hydroxyproline using a modification of the methods of Reddy and Enwemeka (Clinical Biochemistry 29(3):225-9 (1996), which is hereby incorporated by reference in its entirety) to determine total collagen content. Tissues were first dabbed dry, weighed, transferred to eppendorf tubes, and then lyophilized. Samples were mixed with 2N sodium hydroxide in a total volume of 50 μl and hydrolyzed by autoclaving at 120° C. for 20 min. To the hydrolyzate was added 450 μl of chloramines-T solution containing 1.27 gm chloramines-T (Sigma) dissolved in 20 ml 50% n-propanol (Fisher) and brought to 100 ml with acetate citrate buffer containing 120 gm sodium acetate trihydrate (Fisher), 46 gm citric acid (Fisher), 12 ml acetic acid (Fisher), 34 gm sodium hydroxide bringing to 1 liter with distilled water and pH to 6.5. Mixing gently, the oxidation was allowed to proceed for 25 minutes at room temp. Samples were then gently mixed with 500 μl of Ehrlich's Reagent containing 15 gm p-dimethylaminobenzaldehyde (p-DMBA) (Sigma) dissolved in n-propanol/perchloric acid (2:1 v/v) (Fisher) and brought to 100 ml. The resulting 96-well plate of 200 μl samples was read using a spectrophotometer set to 550 nm to determine optical density, which was then correlated with collagen amount using a standard curve and a conversion factor of 8.0 μg collagen to 1 μg 4-hydroxyproline (Edwards and O'Brien, Clinica Chimica Acta 104(2):161-7 (1980), which is hereby incorporated by reference in its entirety).
Hydroxyproline is an imino acid found specifically in type I collagen at 12.5% of the total by weight. This spectrophotometric assay was used to quantitate directly the collagen content of tissue homogenates. The values are represented as μg of collagen/mg of tissue, dry weight.

fibrin gel constructs [5] = test: PCNA staining, percentage of proliferating cells
Protocol: Proliferating cell nuclear antigen stain (“PCNA”) was used to identify and quantitate the percentage of proliferating cells within the tissue-engineered vessel constructs of the present invention. PCNA is a 36 kD molecule highly conserved between species. PCNA functions as a co-factor for DNA polymerase delta in S phase and also during DNA synthesis associated with repair. The PCNA molecule has a half life greater than 20 hours and, therefore, may detect non-proliferating cells in Go phase. Tissue section were fixed in 10% buffered formalin, and paraffin embedded. Tissue sections were cut at 4 μm and placed on positive slides. Sections were then deparaffinised and rehydrated to distilled water. Endogenous peroxidase was blocked by placing sections in […] for 10 minutes and then washed in tap water. Antigen retrieval methods were then applied. Sections were either boiled in 0.01M citrate buffer, or placed in a microwave for 30 seconds on low power. Sections were then washed 1×5 minutes in […] (TBS). Sections were placed in diluted normal serum for 10 minutes, incubated with primary antibody, and washed in TBS 2×5 minutes. Sections were also incubated with biotinylated secondary antibody, and washed in TBS 2×5 minutes. Slides were then incubated in ABC reagent (streptavidin/peroxidase complex), and washed in TBS 2×5 minutes. Slides were incubated in DAB (peroxidase substrate), and washed thoroughly in running tap water. The slides were then counterstained with hematoxylin, dehydrated, and mounted. Proliferating cell nuclear antigen (PCNA) was used to identify cells that were in a proliferating state using histological staining methods. FIGS. 11A-D represent constructs that were stained at 1 week (FIGS. 11A and 11B) and 2 weeks (FIGS. 11C and 11D). The constructs in FIGS. 11A and 11C were under non-pulsed conditions. The constructs in FIGS. 11B and 11D were under pulsed conditions. The PCNA antibody was visualized with diaminobenzidine (DAB) and counter stained with hematoxylin. There was little staining visualized at the one week time point as compared to the two week time point for both the non-pulsed and pulsed constructs. The non-pulsed tissue was slightly greater at both one and two weeks. The PCNA staining was quantitated by counting the total number of positive cells per high powered field and dividing by the total number of cells in the same field to obtain percent of proliferation.

fibrin gel constructs [6] = test: Cell density within vessel constructs (H&E histology)
Protocol: Histological sections of the vessel constructs that were previously prepared with H&E Stain were used to count total number of cells per area. Random high powered fields were measured using Photo Spot software to calculate the actual surface area. The hematoxylin nuclear stain was used to identify the number of cells per high powered field. This was then used to calculate the number cells per surface area (cells/mm^2). Cell density within vessel constructs of the present invention was calculated using histology sections stained with hematoxylin and eosin. Total number of cells were counted per high powered field, divided by the area measured using Photospot Advanced software, and reported as number of cells/mm^2. […] However, at 10 μg/ml aprotinin and thereafter, both groups were decreased and equal. The altered pulsation group ( 1/12 pulsation) (2 wks, 608±123 cells/mm^2, n=5) was equal to both non-pulsed and pulsed at 20 μg/ml aprotinin (FIG. 17). Considering the change in cell density over time (1, 2, 3, 4 and 8 weeks), they were similar at weeks 1 and 2. […] At weeks 4 and 8, there was a significant difference between the two groups (Non-pulsed: 1 wk, 613±140, n=2; 2 wk, 591±52, n=6; 3 wk, 817±43, n=2; 4 wk, 865±17, n=4; 8 wk, 751±101, n=6; Pulsed: 1 wk, 566±33, n=2; 2 wk, 448±71, n=5; 3 wk, 480±213, n=3; 4 wk, 175±25, n=4; 8 wk, 168±54, n=3) (FIG. 18).

[7] = altered pulsation (1 hour per 12 hours), 20 μg/ml aprotinin, 2 wks
[8] = non-pulsed, 10 μg/ml aprotinin, 14 days
[9] = non-pulsed, 20 μg/ml aprotinin, 4 wk
[10] = non-pulsed, 20 μg/ml aprotinin, 8 wk
[11] = non-pulsed, 20 μg/ml aprotinin, 14 days (2 wk)
[12] = non-pulsed, 200 μg/ml aprotinin, 14 days
[13] = pulsed, 10 μg/ml aprotinin, 14 days
[14] = pulsed, 20 μg/ml aprotinin, 4 wk
[15] = pulsed, 20 μg/ml aprotinin, 8 wk
[16] = pulsed, 20 μg/ml aprotinin, 14 days (2 wk)
[17] = pulsed, 200 μg/ml aprotinin, 14 days
[18] = non-pulsed, 20 μg/ml aprotinin, 1 wk
[19] = non-pulsed, 20 μg/ml aprotinin, 3 wk
[20] = pulsed, 20 μg/ml aprotinin, 1 wk
[21] = pulsed, 20 μg/ml aprotinin, 3 wk

Compound: CC(=O)N[C@@H](C(=O)O)C(C)(C)SN=O (racemic) [SNAP]
- relaxation of norepinephrine constriction (fibrin gel constructs [1]; non-pulsed constructs): 42 % of constriction
- relaxation of norepinephrine constriction (fibrin gel constructs [1]; pulsed constructs): fully
- relaxation of norepinephrine constriction compared with 0, 10 and 20 μg/ml aprotinin (fibrin gel constructs [1]; SNAP 10^−7 and 10^−6 M, norepinephrine 10^−6 M, non-pulsed constructs, 200 μg/ml aprotinin): much greater

Compound: [Cl-].[K+] [KCl]
- constriction (fibrin gel constructs [2]; 118 mM KCl, non-pulsed constructs grown with 10 μg/ml aprotinin): 18446±4027 dynes/cm^2
- constriction (fibrin gel constructs [2]; 118 mM KCl, non-pulsed constructs grown with 20 μg/ml aprotinin): 12244±2083 dynes/cm^2
- constriction (fibrin gel constructs [2]; 118 mM KCl, non-pulsed constructs grown with 200 μg/ml aprotinin): 6056±2003 dynes/cm^2
- constriction (fibrin gel constructs [2]; 118 mM KCl, pulsed constructs grown with 10 μg/ml aprotinin): 19274±8302 dynes/cm^2
- constriction (fibrin gel constructs [2]; 118 mM KCl, pulsed constructs grown with 20 μg/ml aprotinin): 8896±1347 dynes/cm^2
- constriction (fibrin gel constructs [2]; 118 mM KCl, pulsed constructs grown with 200 μg/ml aprotinin): 2232±475 dynes/cm^2

Compound: CCCCC[C@H](O)/C=C/[C@@H]1[C@@H](C/C=C\CCCC(=O)O)[C@H]2CO[C@@H]1C2 [U46619]
- constriction (fibrin gel constructs [2]; U46619 3×10^−7, non-pulsed constructs, 0 μg/ml aprotinin): 1160±775 dynes/cm^2
- constriction (fibrin gel constructs [2]; U46619 3×10^−7, non-pulsed constructs, 200 μg/ml aprotinin): 2140±416 dynes/cm^2
- constriction (fibrin gel constructs [2]; U46619 3×10^−7, pulsed constructs, 10 μg/ml aprotinin): 2670±944 dynes/cm^2
- constriction (fibrin gel constructs [2]; U46619 3×10^−7, pulsed constructs, 200 μg/ml aprotinin): 973±240 dynes/cm^2

Compound: CC(C)NCC(O)c1ccc(O)c(O)c1 (stereo not shown) [isoproterenol]
- relaxation (fibrin gel constructs [1]; isoproterenol compared with SNAP): much less than that of SNAP

Compound: NC[C@H](O)c1ccc(O)c(O)c1 [norepinephrine]
- constriction (fibrin gel constructs [2]; norepinephrine 3×10^−6 M, non-pulsed constructs, 0 μg/ml aprotinin): 4743±1849 dynes/cm^2
- constriction (fibrin gel constructs [2]; norepinephrine 3×10^−6 M, non-pulsed constructs, 200 μg/ml aprotinin): 965±16 dynes/cm^2
- constriction (fibrin gel constructs [2]; norepinephrine 3×10^−6 M, pulsed constructs, 10 μg/ml aprotinin): 4316±1738 dynes/cm^2
- constriction (fibrin gel constructs [2]; norepinephrine 3×10^−6 M, pulsed constructs, 200 μg/ml aprotinin): 101±102 dynes/cm^2

Compound: aprotinin
- increase in total tissue weight with later (48 hrs) addition of aprotinin (fibrin gel constructs [3]; non-pulsed): 50%
- increase in total tissue weight with later (48 hrs) addition of aprotinin (fibrin gel constructs [3]; pulsed): 130%
- collagen content (fibrin gel constructs [4]; [7]): 266.6 ± 20.9 µg/mg
- collagen content (fibrin gel constructs [4]; [8]): 175.2 ± 42.3 µg/mg
- collagen content (fibrin gel constructs [4]; [9]): 239.9 ± 73.2 µg/mg
- collagen content (fibrin gel constructs [4]; [10]): 283.5 ± 80.3 µg/mg
- collagen content (fibrin gel constructs [4]; [11]): 225.0 ± 30.2 µg/mg
- collagen content (fibrin gel constructs [4]; [12]): 270.1 ± 46.2 µg/mg
- collagen content (fibrin gel constructs [4]; [13]): 31.5 ± 22.5 µg/mg
- collagen content (fibrin gel constructs [4]; [14]): 124.5 ± 25.1 µg/mg
- collagen content (fibrin gel constructs [4]; [15]): 91.8 ± 24.3 µg/mg
- collagen content (fibrin gel constructs [4]; [16]): 105.9 ± 16.7 µg/mg
- collagen content (fibrin gel constructs [4]; [17]): 217.3 ± 21.0 µg/mg
- percent of proliferation (PCNA positive cells) (fibrin gel constructs [5]; [7]): 26.3±5.0%
- percent of proliferation (PCNA positive cells) (fibrin gel constructs [5]; [8]): 73.3±8.8%
- percent of proliferation (PCNA positive cells) (fibrin gel constructs [5]; [18]): 20.44±44.0%
- percent of proliferation (PCNA positive cells) (fibrin gel constructs [5]; [19]): 55.5±4.7%
- percent of proliferation (PCNA positive cells) (fibrin gel constructs [5]; [9]): 20.1±7.6%
- percent of proliferation (PCNA positive cells) (fibrin gel constructs [5]; [10]): 22.8±3. %
- percent of proliferation (PCNA positive cells) (fibrin gel constructs [5]; [11]): 73.6±6.3%
- percent of proliferation (PCNA positive cells) (fibrin gel constructs [5]; [12]): 2.9±0.9%
- percent of proliferation (PCNA positive cells) (fibrin gel constructs [5]; [13]): 12.3±3.6%
- percent of proliferation (PCNA positive cells) (fibrin gel constructs [5]; [20]): 41.7±31.1%
- percent of proliferation (PCNA positive cells) (fibrin gel constructs [5]; [21]): 37.5±3.6%
- percent of proliferation (PCNA positive cells) (fibrin gel constructs [5]; [14]): 28.0±6.9%
- percent of proliferation (PCNA positive cells) (fibrin gel constructs [5]; [15]): 14.7±7.5%
- percent of proliferation (PCNA positive cells) (fibrin gel constructs [5]; [16]): 89.6±2.6%
- percent of proliferation (PCNA positive cells) (fibrin gel constructs [5]; [17]): 7.7±1.9%
- cell density (fibrin gel constructs [6]; [7]): 608±123 cells/mm^2
- cell density (fibrin gel constructs [6]; [8]): 731±108 cells/mm^2
- cell density (fibrin gel constructs [6]; [18]): 613±140 cells/mm^2
- cell density (fibrin gel constructs [6]; [19]): 817±43 cells/mm^2
- cell density (fibrin gel constructs [6]; [9]): 865±17 cells/mm^2
- cell density (fibrin gel constructs [6]; [10]): 751±101 cells/mm^2
- cell density (fibrin gel constructs [6]; [11]): 591±52 cells/mm^2
- cell density (fibrin gel constructs [6]; [12]): 635±98 cells/mm^2
- cell density (fibrin gel constructs [6]; [13]): 611±180 cells/mm^2
- cell density (fibrin gel constructs [6]; [20]): 566±33 cells/mm^2
- cell density (fibrin gel constructs [6]; [21]): 480±213 cells/mm^2
- cell density (fibrin gel constructs [6]; [14]): 175±25 cells/mm^2
- cell density (fibrin gel constructs [6]; [15]): 168±54 cells/mm^2
- cell density (fibrin gel constructs [6]; [16]): 448±71 cells/mm^2
- cell density (fibrin gel constructs [6]; [17]): 390±59 cells/mm^2
